Measured values: paper PMC11968506, “Toxicokinetics and analytical toxicology of the phenmetrazine-derived new psychoactive substance 3,4-methylenedioxyphenmetrazine studied by means of in vitro systems” (Archives of Toxicology, 2025)
Read-outs that look alike come from different tables or passages of the source.

Assays:
CYP2C19 = CYP2C19 (Homo sapiens, UniProt P33261); test: CYP inhibition cocktail assay in pHLM, CYP2C19 (omeprazole); settings: inhibitor 20 µM, omeprazole 21 µM, pHLM 0.4 mg/mL, 15 min; control without inhibitor = 100%
Experimental: (§1) A modified dual-cocktail based method (Dinger et al. [2014b]) was used. Substrate cocktail A consisted of 8.9 µM dextromethorphan (CYP2D6), 86 µM testosterone (CYP3A4), 3.5 µM diclofenac (CYP2C9), and 12 µM phenacetin (CYP1A2). Substrate cocktail B included 30 µM bupropion (CYP2B6), 2 µM amodiaquine (CYP2C8) and 21 µM omeprazole (CYP2C19). Substrate concentrations were near their respective Michaelis–Menten constant (Km) values (Dinger et al. [2014a]) and all concentrations are final. Enzyme inhibition was investigated using a positive control, a test group, a control group, an interference group, and a negative control. In the test group, specific inhibitors were replaced by MDPM (20 µM). Instead of inhibitors, phosphate buffer was used in the control group. Enzymes were replaced with phosphate buffer in the negative control group. The interference group was incubated like the control group, but the reaction was stopped with 20 µM MDPM in acetonitrile, also containing 2.5 µM trimipramine-d3. All groups were incubated with a NADPH-regenerating system, consisting of 5 mM isocitrate, 2 U/mL isocitrate dehydrogenase, 5 mM Mg^2+, and 1.2 mM NADP^+. Further, substrate cocktail A or B, 90 mM phosphate buffer (pH 7.4), and 200 U/mL superoxide dismutase were added to each group. […] All groups were preincubated for 10 min at 37 °C. Then, pHLM (0.4 mg microsomal protein/mL) was added to each group except the negative control. Incubations were done for 15 min at 37 °C. Therefore, 50 µL of acetonitrile (− 20 °C) containing 2.5 µM trimipramine-d3 as internal standard was added. Incubations were done in triplicates and organic solvent in the incubation mixture was below 1% (Chauret et al. [1998]). Afterwards the samples were vortexed and centrifuged for 2 min at 18,407×g. 70 µL of the supernatant were transferred to autosampler vials and 10 µL were injected onto the LC-HRMS/MS system. Enzyme inhibition was evaluated by metabolite formation. […] The following settings were used: unpaired; one-tailed; significance level, 0.05; confidence intervals, 99%.

[1] = In vitro metabolism by pooled human liver microsomes; type: in vitro ADME; settings: MDPM 25 µM, pHLM 1 mg/mL, 60 and 120 min; tentative identification
Experimental: Incubations with pHLM were in accordance with previous publications and minor modifications (Richter et al. [2017]). First, 2.5 mM isocitrate, 0.8 U/mL isocitrate dehydrogenase, 100 U/mL superoxide dismutase, 0.6 mM NADP^+, 2.5 mM Mg^2+ and pHLM (1 mg microsomal protein/mL) were preincubated for 10 min at 37 °C. […] Substances were incubated for 60 and 120 min at 37 °C. All concentrations are final concentrations, and incubations were done in duplicates. 50 µL aliquots were transferred to a new reaction tube at both timepoints. The reaction was stopped by adding 30 µL acetonitrile (− 20 °C) with 2.5 µM trimipramine-d3 as an internal standard. Negative control samples without enzymes and blank samples without substrates were performed to identify not metabolically formed compounds and to confirm the absence of interfering compounds.

[2] = In vitro metabolism by pooled human liver S9 fraction; type: in vitro ADME; settings: MDPM 25 µM, pHLS9 2 mg/mL, 60 and 360 min; tentative identification
Experimental: Incubations with pHLS9 were performed in accordance with previous publications and minor adjustments (Richter et al. [2017]). First, 25 μg/mL alamethicin (UGT reaction mix B), pHLS9 (2 mg microsomal protein/mL), 0.1 mM AcCoA, 2.3 mM acetylcarnitine, 8 U/mL carnitine acetyltransferase, 2.5 mM isocitrate, 0.8 U/mL isocitrate dehydrogenase, 100 U/mL superoxide dismutase, 0.6 mM NADP^+ and 2.5 mM Mg^2+ were preincubated for 10 min at 37 °C. Then, 2.5 mM UDP-glucuronic acid (UGT reaction mix A), 40 µM PAPS, 1.2 mM SAM, 1 mM DTT and 10 mM GSH were added. The reaction was started by adding the respective substrate MDPM, MDMA, or quetiapine (25 µM each). MDMA and quetiapine were incubated as positive controls. Negative control samples without enzymes and blank samples without substrates were incubated to identify not metabolically formed compounds and to confirm the absence of interfering compounds. […] Aliquots (50 µL) were transferred to a new reaction tube after 60 and 360 min. […] Samples were vortexed, stored at − 20 °C for 30 min, and centrifuged for 2 min at 18,407×g.

[3] = In vitro metabolism by HepaRG cells; type: in vitro ADME, human; settings: MDPM 25 µM and 250 µM, tentative identification
Experimental: Cell incubations were performed in a monolayer assay as previously described (Richter et al. [2019]) and in accordance with the manufacturer’s instructions. HepaRG cells were thawed and resuspended in 13.5 mL (~ 740,000 cells/mL) thaw and seed medium at 37 °C. Thaw and seed medium consisted of Williams E medium, 100 U/mL penicillin, 100 µg/mL streptomycin, GlutaMAX and HPRG670 supplement. Cells were handled under sterile conditions using a laminar flow bench class II (Thermo Scientific, TF, Schwerte, Germany). Aliquots of 100 µL cell suspension were seeded on collagen-coated 96-well plates (~ 74,000 cells/well). Evaporation was minimized by filling the outer wells with 100 µL thaw and seed medium. Cells were preincubated for 4 h in an incubator (Binder, Tuttlingen, Germany) at 37 °C, 95% air humidity, and 5% CO2. After preincubation, 50 µL of the thaw and seed medium was replaced with 50 µL MDPM solution (25 µM and 250 µM final concentrations), followed by an incubation for 24 h at 37 °C, 95% air humidity, and 5% CO2 atmosphere. MDMA or quetiapine (25 µM and 250 µM final concentrations, respectively) were incubated as positive controls. All incubations were done in triplicates. Each well contained 0.5% (v/v) DMSO. […]

CYP2D6 [4] = molecular target: T1, CYP2D6 (Homo sapiens, UniProt P10635); test: Monooxygenase mapping (ten human cDNA-expressed CYP isoforms and FMO3); type: in vitro ADME; design: Then, pHLM (0.4 mg microsomal protein/mL) was added to each group except the negative control; tissue Discovery Life Sciences; host or cells: pooled human liver microsomes, 25 donors; settings: MDPM 25 µM, CYP 50 pmol/mL each or FMO3 0.25 mg protein/mL, 90 and 270 min
Experimental: As described elsewhere (Wagmann et al. [2016]) and with minor modifications, MDPM (25 µM) was incubated with 2.5 mM isocitrate, 0.8 U/mL isocitrate dehydrogenase, 100 U/mL superoxide dismutase, 0.6 mM NADP^+, 2.5 mM Mg^2+ and CYP1A2, CYP2A6, CYP2B6, CYP2C8, CYP2C9, CYP2C19, CYP2D6, CYP2E1, CYP3A4, CYP3A5 (50 pmol/mL each), or FMO3 (0.25 mg protein/mL) for 90 and 270 min at 37 °C. For incubations with CYP2A6 or CYP2C9, phosphate buffer was replaced with 90 mM Tris buffer, according to the manufacturer’s guideline. Thirty µL aliquots were taken at both timepoints. The reaction was stopped using 20 µL acetonitrile (− 20 °C) with 2.5 µM trimipramine-d3 as an internal standard. All incubations were done in duplicates and concentrations are final. […] Negative control samples without enzymes and blank samples without substrate were incubated to identify not metabolically formed compounds and to confirm the absence of interfering compounds.

[5] = cited from earlier work
[6] = ref Alberto-Silva et al. 2024; cited from earlier work
CYP2D6 [7] = molecular target: T1, CYP2D6; test: CYP inhibition cocktail assay in pHLM, CYP2D6 (dextromethorphan); settings: inhibitor 20 µM, dextromethorphan, pHLM; versus control without inhibitor
Experimental: as §1

CYP2B6 = molecular target: T2, CYP2B6 (Homo sapiens, UniProt P20813); test: CYP inhibition cocktail assay in pHLM, CYP2B6 (bupropion); settings: inhibitor 20 µM, bupropion 30 µM, pHLM 0.4 mg/mL, 15 min; control without inhibitor = 100%
T2 sequence (P20813 1-491): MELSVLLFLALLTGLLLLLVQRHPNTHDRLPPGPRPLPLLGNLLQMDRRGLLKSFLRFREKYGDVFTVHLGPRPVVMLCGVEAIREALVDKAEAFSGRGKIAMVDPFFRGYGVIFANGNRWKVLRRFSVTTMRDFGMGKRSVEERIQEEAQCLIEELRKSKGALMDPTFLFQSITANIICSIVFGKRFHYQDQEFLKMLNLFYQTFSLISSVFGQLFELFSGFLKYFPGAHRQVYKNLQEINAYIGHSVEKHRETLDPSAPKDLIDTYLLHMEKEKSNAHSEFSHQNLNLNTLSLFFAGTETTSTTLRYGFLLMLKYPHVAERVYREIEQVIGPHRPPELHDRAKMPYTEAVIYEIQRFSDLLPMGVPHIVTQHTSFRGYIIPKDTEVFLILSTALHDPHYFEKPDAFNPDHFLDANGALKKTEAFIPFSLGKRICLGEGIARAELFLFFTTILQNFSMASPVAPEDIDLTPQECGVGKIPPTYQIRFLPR
Experimental: as §1

CYP2C9 = CYP2C9 (Homo sapiens, UniProt P11712); test: CYP inhibition cocktail assay in pHLM, CYP2C9 (diclofenac); settings: inhibitor 20 µM, diclofenac 3.5 µM, pHLM 0.4 mg/mL, 15 min; control without inhibitor = 100%
Experimental: as §1

CYP2C8 [8] = molecular target: T3, CYP2C8 (Homo sapiens, UniProt P10632); test: CYP inhibition cocktail assay in pHLM, CYP2C8 (amodiaquine); settings: inhibitor 100 µM, amodiaquine 2 µM, pHLM 0.4 mg/mL, 15 min; control without inhibitor = 100%
T3 sequence (P10632 1-490): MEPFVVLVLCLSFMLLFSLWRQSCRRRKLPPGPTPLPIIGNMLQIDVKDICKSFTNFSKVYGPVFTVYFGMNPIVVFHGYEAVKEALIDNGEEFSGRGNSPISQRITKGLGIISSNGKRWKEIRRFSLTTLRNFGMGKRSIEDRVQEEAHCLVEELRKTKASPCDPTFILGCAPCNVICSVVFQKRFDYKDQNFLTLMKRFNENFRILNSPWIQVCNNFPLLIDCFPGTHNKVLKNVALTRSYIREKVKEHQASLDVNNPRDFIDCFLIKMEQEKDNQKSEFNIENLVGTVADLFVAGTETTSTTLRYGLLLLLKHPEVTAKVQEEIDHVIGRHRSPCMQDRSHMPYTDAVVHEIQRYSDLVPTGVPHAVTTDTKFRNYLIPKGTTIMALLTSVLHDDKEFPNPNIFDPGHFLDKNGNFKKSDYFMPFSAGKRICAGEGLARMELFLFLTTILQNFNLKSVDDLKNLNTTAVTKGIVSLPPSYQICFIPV
Experimental: as §1

CYP2C8 [9] = settings: 100 µM trimethoprim; ref Niemi et al. 2004; cited from earlier work

T1 sequence (P10635 whole entry, canonical isoform): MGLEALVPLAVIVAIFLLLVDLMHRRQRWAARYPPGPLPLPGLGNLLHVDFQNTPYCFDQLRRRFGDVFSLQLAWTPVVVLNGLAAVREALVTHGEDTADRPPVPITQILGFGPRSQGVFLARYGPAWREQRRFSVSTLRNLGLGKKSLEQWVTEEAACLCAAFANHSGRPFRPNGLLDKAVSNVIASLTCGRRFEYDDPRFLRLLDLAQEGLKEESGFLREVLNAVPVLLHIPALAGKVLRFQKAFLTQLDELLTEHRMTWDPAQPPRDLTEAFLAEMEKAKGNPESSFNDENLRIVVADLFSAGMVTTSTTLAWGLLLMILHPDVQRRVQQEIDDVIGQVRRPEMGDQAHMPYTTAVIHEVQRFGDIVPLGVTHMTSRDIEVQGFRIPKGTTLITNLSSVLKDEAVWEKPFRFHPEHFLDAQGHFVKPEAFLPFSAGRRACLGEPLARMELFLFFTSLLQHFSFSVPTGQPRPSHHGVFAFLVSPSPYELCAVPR
Sequence of CYP2C19 (P33261 whole entry): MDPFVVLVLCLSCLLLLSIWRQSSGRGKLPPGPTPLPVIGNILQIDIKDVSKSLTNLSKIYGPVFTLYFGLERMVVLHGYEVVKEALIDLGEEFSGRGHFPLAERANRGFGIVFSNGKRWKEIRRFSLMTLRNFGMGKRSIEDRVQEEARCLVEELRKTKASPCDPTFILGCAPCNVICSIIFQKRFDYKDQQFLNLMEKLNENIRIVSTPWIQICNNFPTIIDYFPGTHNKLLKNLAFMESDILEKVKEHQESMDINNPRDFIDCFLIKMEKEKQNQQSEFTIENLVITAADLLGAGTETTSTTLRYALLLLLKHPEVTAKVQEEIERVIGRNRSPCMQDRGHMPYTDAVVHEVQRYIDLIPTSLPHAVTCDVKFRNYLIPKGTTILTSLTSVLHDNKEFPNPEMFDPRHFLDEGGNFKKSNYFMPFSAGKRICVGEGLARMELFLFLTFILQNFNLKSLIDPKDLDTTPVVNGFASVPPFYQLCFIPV
Sequence of CYP2C9 (P11712 whole entry): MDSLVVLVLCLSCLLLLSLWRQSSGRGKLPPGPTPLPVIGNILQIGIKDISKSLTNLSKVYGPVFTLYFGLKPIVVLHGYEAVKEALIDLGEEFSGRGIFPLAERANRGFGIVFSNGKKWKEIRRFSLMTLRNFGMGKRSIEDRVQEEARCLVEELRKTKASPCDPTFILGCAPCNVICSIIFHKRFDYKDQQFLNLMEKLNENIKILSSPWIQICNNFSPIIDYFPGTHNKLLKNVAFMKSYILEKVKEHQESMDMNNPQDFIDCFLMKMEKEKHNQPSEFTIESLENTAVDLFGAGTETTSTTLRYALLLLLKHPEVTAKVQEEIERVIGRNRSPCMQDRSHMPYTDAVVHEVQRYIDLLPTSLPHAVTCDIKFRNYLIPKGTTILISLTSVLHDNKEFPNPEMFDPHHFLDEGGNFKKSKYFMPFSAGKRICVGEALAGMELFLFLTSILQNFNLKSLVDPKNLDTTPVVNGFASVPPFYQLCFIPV

## OC(Cn1cncn1)(Cn1cncn1)c1ccc(F)cc1F [Fluconazole, fluconazole, reference compound]
CYP2C19
  CYP2C19 metabolite formation: 48%

## CC1NCCOC1c1ccc(O)c(O)c1 (stereo not drawn) [M1, Demethylenyl-MDPM]
[1]
  metabolite detection in pHLM incubations: found
[2]
  metabolite detection in pHLS9 incubations: could not be identified
[3]
  metabolite detection in HepaRG incubations: could not be identified
CYP2D6 [4]
  isozymes forming the demethylenyl metabolite (O-demethylenation of MDPM): only found in CYP2D6 incubations

## COc1cc(C2OCCNC2C)ccc1O (stereo not drawn) [M2]
[2]
  metabolite detection in pHLS9 incubations: found

## CNC(C)Cc1ccc2c(c1)OCO2 (stereo not drawn) [MDMA, 3,4-methylenedioxymethamphetamine]
[5]; ref Wan Aasim et al. 2017
  plasma protein binding (PPB): 43–51%
[6]
  in vitro half-life: over 150 min

## C=C[C@H]1C[N@@]2CC[C@H]1C[C@@H]2[C@@H](O)c1ccnc2ccc(OC)cc12 [Quinidine, quinidine, reference compound]
CYP2D6 [7]
  decrease in CYP2D6 activity (inhibition): 99%

## CN[C@H]1CC[C@@H](c2ccc(Cl)c(Cl)c2)c2ccccc21 [Sertraline, sertraline, reference compound]
CYP2B6
  CYP2B6 metabolite formation: 24%

## Nc1ccc(S(=O)(=O)Nc2ccnn2-c2ccccc2)cc1 [Sulfaphenazole, sulfaphenazole, reference compound]
CYP2C9
  CYP2C9 metabolite formation: 9%

## COc1cc(Cc2cnc(N)nc2N)cc(OC)c1OC [Trimethoprim, trimethoprim, reference compound]
CYP2C8 [8]
  CYP2C8 metabolite formation: 81%
CYP2C8 [9]
  maximum inhibition of CYP2C8 activity: ≤ 40%

## CC(N)Cc1ccccc1 (stereo not drawn) [amphetamine]
[5]; ref Franksson and Anggard 1970, Losacker et al. 2021
  plasma protein binding (PPB): 20–30%

## CC1NCCOC1c1ccccc1 (stereo not drawn) [phenmetrazine]
[5]; ref Franksson and Anggard 1970
  plasma protein binding (PPB): 20%
